# From paper PMC10938783, “A novel pan-PI3K inhibitor KTC1101 synergizes with anti-PD-1 therapy by targeting tumor suppression and immune activation” (Molecular Cancer, 2024)
# System: B16 cells gene expression
# Test: RNA-Seq (DEGs, GSEA, heatmaps) of B16 cells
# Conditions: KTC1101 0.2μM, B16 cells, GSEA KEGG
smiles,measurement,value
"COc1cc(N)cc2c1nc(C(F)F)n2-c1nc(N2CCCOCC2)nc(N2CCOCC2)n1 [KTC1101, 2-(difluoromethyl)-4-methoxy-1-(4-morpholino-6-(1,4-oxazepan-4-yl)-1,3,5-triazin-2-yl)-1H-benzo[d]imidazol-6-amine]","NES, mmu00600 Sphingolipid metabolism",-0.9518
same,"NES, mmu00860 Porphyrin metabolism",-1.036
same,"NES, mmu00980 Metabolism of xenobiotics by cytochrome P450",-1.182
same,"NES, mmu00982 Drug metabolism - cytochrome P450",-1.185
same,"NES, mmu01250 Biosynthesis of nucleotide sugars",-1.14
same,"NES, mmu01522 Endocrine resistance",0.9546
same,"NES, mmu01523 Antifolate resistance",-0.7817
same,"NES, mmu02010 ABC transporters",-0.733
same,"NES, mmu03008 Ribosome biogenesis in eukaryotes",0.4012
same,"NES, mmu03015 mRNA surveillance pathway",-0.5314
same,"NES, mmu03018 RNA degradation",-0.9036
same,"NES, mmu03022 Basal transcription factors",-0.6056
same,"NES, mmu03040 Spliceosome",-0.8341
same,"NES, mmu03060 Protein export",-1.073
same,"NES, mmu03082 ATP-dependent chromatin remodeling",0.5087
same,"NES, mmu03083 Polycomb repressive complex",0.285
same,"NES, mmu03250 Viral life cycle - HIV-1",-0.5849
same,"NES, mmu03410 Base excision repair",0.509
same,"NES, mmu03420 Nucleotide excision repair",-0.5668
same,"NES, mmu03430 Mismatch repair",-0.5004
same,"NES, mmu03460 Fanconi anemia pathway",-1.065
same,"NES, mmu04014 Ras signaling pathway",-1.059
same,"NES, mmu04068 FoxO signaling pathway",0.8311
same,"NES, mmu04070 Phosphatidylinositol signaling system",-0.719
same,"NES, mmu04071 Sphingolipid signaling pathway",-0.7752
same,"NES, mmu04115 p53 signaling pathway",0.8074
same,"NES, mmu04120 Ubiquitin mediated proteolysis",-0.8155
same,"NES, mmu04130 SNARE interactions in vesicular transport",-0.572
same,"NES, mmu04136 Autophagy - other",0.5764
same,"NES, mmu04137 Mitophagy - animal",-1.12
same,"NES, mmu04140 Autophagy - animal",-0.941
same,"NES, mmu04144 Endocytosis",0.5953
same,"NES, mmu04146 Peroxisome",0.8534
same,"NES, mmu04148 Efferocytosis",0.8875
same,"NES, mmu04150 mTOR signaling pathway",-1.035
same,"NES, mmu04152 AMPK signaling pathway",-1.036
same,"NES, mmu04210 Apoptosis",0.7025
same,"NES, mmu04211 Longevity regulating pathway",0.8953
same,"NES, mmu04213 Longevity regulating pathway - multiple species",0.9083
same,"NES, mmu04215 Apoptosis - multiple species",0.9536
same,"NES, mmu04216 Ferroptosis",-1.019
same,"NES, mmu04217 Necroptosis",-1.0231
same,"NES, mmu04270 Vascular smooth muscle contraction",0.9765
same,"NES, mmu04360 Axon guidance",1.086
same,"NES, mmu04392 Hippo signaling pathway - multiple species",1.0712
same,"NES, mmu04514 Cell adhesion molecules",1.133
same,"NES, mmu04520 Adherens junction",0.8769
same,"NES, mmu04530 Tight junction",-0.672
same,"NES, mmu04550 Signaling pathways regulating pluripotency of stem cells",1.1205
same,"NES, mmu04611 Platelet activation",0.9386
same,"NES, mmu04612 Antigen processing and presentation",0.9078
same,"NES, mmu04622 RIG-I-like receptor signaling pathway",0.797
same,"NES, mmu04623 Cytosolic DNA-sensing pathway",1.118
same,"NES, mmu04650 Natural killer cell mediated cytotoxicity",0.8466
same,"NES, mmu04658 Th1 and Th2 cell differentiation",1.107
same,"NES, mmu04660 T cell receptor signaling pathway",0.5971
same,"NES, mmu04662 B cell receptor signaling pathway",0.8546
same,"NES, mmu04666 Fc gamma R-mediated phagocytosis",-1.143
same,"NES, mmu04670 Leukocyte transendothelial migration",0.7018
same,"NES, mmu04714 Thermogenesis",-1.042
same,"NES, mmu04720 Long-term potentiation",0.7614
same,"NES, mmu04723 Retrograde endocannabinoid signaling",1.004
same,"NES, mmu04726 Serotonergic synapse",1.185
same,"NES, mmu04727 GABAergic synapse",1.114
same,"NES, mmu04728 Dopaminergic synapse",0.9578
same,"NES, mmu04730 Long-term depression",1.063
same,"NES, mmu04750 Inflammatory mediator regulation of TRP channels",0.9151
same,"NES, mmu04910 Insulin signaling pathway",1.052
same,"NES, mmu04912 GnRH signaling pathway",1.125
same,"NES, mmu04915 Estrogen signaling pathway",0.9405
same,"NES, mmu04916 Melanogenesis",0.9564
same,"NES, mmu04917 Prolactin signaling pathway",0.9333
same,"NES, mmu04920 Adipocytokine signaling pathway",1.108
same,"NES, mmu04929 GnRH secretion",-1.07
same,"NES, mmu04930 Type II diabetes mellitus",1.078
same,"NES, mmu04932 Non-alcoholic fatty liver disease",-1.05
same,"NES, mmu04934 Cushing syndrome",0.9692
same,"NES, mmu04936 Alcoholic liver disease",0.7413
same,"NES, mmu04960 Aldosterone-regulated sodium reabsorption",1.176
same,"NES, mmu04961 Endocrine and other factor-regulated calcium reabsorption",0.9748
same,"NES, mmu04962 Vasopressin-regulated water reabsorption",1.132
